Drawing on ChEMBL document CHEMBL3751711, “Design and synthesis of novel Y-shaped barbituric acid derivatives as PPARγ activators” (Eur J Med Chem, 2016), this text covers IC50 for 15 molecules.

In the first test the target is T1, Peroxisome proliferator-activated receptor gamma (Homo sapiens, UniProt P37231).
T1 sequence (P37231 whole entry): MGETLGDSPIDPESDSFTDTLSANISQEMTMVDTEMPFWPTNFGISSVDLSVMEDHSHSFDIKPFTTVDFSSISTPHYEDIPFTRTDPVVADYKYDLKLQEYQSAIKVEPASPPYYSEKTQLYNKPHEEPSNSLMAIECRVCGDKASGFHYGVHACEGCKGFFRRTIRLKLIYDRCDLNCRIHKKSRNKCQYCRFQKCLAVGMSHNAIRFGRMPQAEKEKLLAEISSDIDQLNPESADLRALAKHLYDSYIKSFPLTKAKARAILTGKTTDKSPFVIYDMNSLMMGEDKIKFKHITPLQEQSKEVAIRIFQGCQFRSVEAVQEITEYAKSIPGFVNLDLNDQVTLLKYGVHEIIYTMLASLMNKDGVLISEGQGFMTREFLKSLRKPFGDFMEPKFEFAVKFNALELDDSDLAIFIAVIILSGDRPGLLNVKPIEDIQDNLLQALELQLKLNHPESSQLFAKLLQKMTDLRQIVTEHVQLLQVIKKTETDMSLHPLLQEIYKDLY
Description: Binding affinity to GST-tagged human PPAR-gamma receptor by FRET assay.
Settings: not given; call rule not given here
Regarding `O=C1NC(=O)C(=Cc2ccc(N(CCOCc3ccccc3)CCOC(c3ccccc3)(c3ccccc3)c3ccccc3)cc2)C(=O)N1`, the IC50 entry is listed as “Not Active”. Take `O=C1NC(=O)C(=Cc2ccc(N(CCOc3ccccn3)CCOc3ccccn3)cc2)C(=O)N1`: the IC50 result is “Not Active”. For the molecule `CC(=O)OCCN(CCOC(C)=O)c1ccc(C=C2C(=O)NC(=O)NC2=O)cc1`, the IC50 result was “Not Active”. Consider `COc1ccc(COCCN(CCOCc2ccc(Br)cc2)c2ccc(C=C3C(=O)NC(=O)NC3=O)cc2)cc1`, for which the IC50 result is recorded as “Not Active”.

For `COc1ccc(COCCN(CCOC(C)=O)c2ccc(C=C3C(=O)NC(=O)NC3=O)cc2)cc1`, the 50% inhibitory concentration (IC50) entry is reported as “Not Active”. In the case of `O=C1NC(=O)C(=Cc2ccc(N(CCOCc3ccc(F)cc3)CCOCc3ccc(F)cc3)cc2)C(=O)N1`, the IC50 entry was “Not Active”.

Staying with this test, now noted: read-out: IC50.
For `O=C1NC(=O)C(=Cc2ccc(N(CCO)CCOC(c3ccccc3)(c3ccccc3)c3ccccc3)cc2)C(=O)N1`, the IC50 was determined as 22.2 µM.

As for `COc1ccc(COCCN(CCOCc2ccccc2)c2ccc(C=C3C(=O)NC(=O)NC3=O)cc2)cc1`, the IC50 was determined as 191 µM. In the case of `N#Cc1ccc(OCCN(CCOc2ccc(C#N)cc2)c2ccc(C=C3C(=O)NC(=O)NC3=O)cc2)cc1`, the IC50 was 6.5 µM. For the molecule `O=C1NC(=O)C(=Cc2ccc(N(CCOc3ccc([N+](=O)[O-])cc3)CCOc3ccc([N+](=O)[O-])cc3)cc2)C(=O)N1`, the IC50 came to 10.1 µM.

`COc1ccc(COCCN(CCOCc2ccc(OC)cc2)c2ccc(C=C3C(=O)NC(=O)NC3=O)cc2)cc1`: the IC50 stood at 59.1 µM.

On to `COc1ccc(COCCN(CCOc2ccccn2)c2ccc(C=C3C(=O)NC(=O)NC3=O)cc2)cc1`, for which the IC50 was 84 µM.

Take `CC(=O)OCCN(CCOCc1ccccc1)c1ccc(C=C2C(=O)NC(=O)NC2=O)cc1`: the IC50 is above 200 µM.

Regarding `O=C1NC(=O)C(=Cc2ccc(N(CCOCc3ccccc3)CCOCc3ccccc3)cc2)C(=O)N1`, the IC50 stood at 78.4 µM. Same read-out and setting: the result for `O=C1NC(=O)C(=Cc2ccc(OCc3ccccc3)cc2)C(=O)N1` reads 0.1 µM.

One may read the IC50 as the point on the concentration scale where inhibition reaches its midpoint.
